Experimental data taken from ChEMBL document CHEMBL1201862, “PubChem BioAssay data set” (2004).
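Interpolation was linear, between the two tested concentrations surrounding the appropriate level; five concentrations were tested over 48 hours in 96-well plates. GI50 marks 50% less growth.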 The source made the active and inactive calls. Cut-off read from the data, not from the text of the source: active = GI50 up to about 1.1 µM and inactive = higher.

Tests used:
Assay in all cases: growth of human tumour cells (NCI), 48 h
786-0 = system: 786-0
COLO 205 = system: COLO 205
EKVX = system: EKVX
HOP-62 = system: HOP-62
IGROV-1 = system: IGROV-1
MCF7 = system: MCF7
MDA-MB-435 = system: MDA-MB-435
MDA-N = system: MDA-N
Malme-3M = system: Malme-3M
OVCAR-3 = system: OVCAR-3
OVCAR-4 = system: OVCAR-4
OVCAR-8 = system: OVCAR-8
SK-MEL-5 = system: SK-MEL-5
SK-OV-3 = system: SK-OV-3
SNB-75 = system: SNB-75
SW-620 = system: SW-620
T47D = system: T47D
TK-10 = system: TK-10
UACC-257 = system: UACC-257
UACC-62 = system: UACC-62

SMILES | GI50 (786-0) | GI50 (COLO 205) | GI50 (EKVX) | GI50 (HOP-62) | GI50 (IGROV-1) | GI50 (MCF7) | GI50 (MDA-MB-435) | GI50 (MDA-N) | GI50 (Malme-3M) | GI50 (OVCAR-3) | GI50 (OVCAR-4) | GI50 (OVCAR-8) | GI50 (SK-MEL-5) | GI50 (SK-OV-3) | GI50 (SNB-75) | GI50 (SW-620) | GI50 (T47D) | GI50 (TK-10) | GI50 (UACC-257) | GI50 (UACC-62)
O=c1[nH]c(Br)nc2[nH]nnc12 | 25.1 µM (inactive) | > 100 µM (inactive) | 70.1 µM (inactive) | 17.7 µM (inactive) | > 100 µM (inactive) | 74.1 µM (inactive) | 19.3 µM (inactive) | 38.9 µM (inactive) | 6.95 µM (inactive) | > 100 µM (inactive) | 85.5 µM (inactive) | 8.79 µM (inactive) | 68.9 µM (inactive) | 39.3 µM (inactive) | 23.1 µM (inactive) | 45.8 µM (inactive) | 26.2 µM (inactive) | 54.6 µM (inactive) | 55.6 µM (inactive) | 15.9 µM (inactive)
CCCNC(=O)N(C)C(=O)N1N=C(c2ccccc2)C1c1ccccc1 (stereo not given) | > 100 µM (inactive) | 54.2 µM (inactive) | > 100 µM (inactive) | > 100 µM (inactive) | 78.7 µM (inactive) | > 100 µM (inactive) | 95.7 µM (inactive) | 95.1 µM (inactive) | 39.6 µM (inactive) | 61.7 µM (inactive) | 46.1 µM (inactive) | 55.7 µM (inactive) | 87.3 µM (inactive) | > 100 µM (inactive) | 54.3 µM (inactive) | > 100 µM (inactive) | > 100 µM (inactive) | > 100 µM (inactive) | 82.6 µM (inactive) | 59.3 µM (inactive)
CCOC(=O)C(O)(C(=O)OCC)c1cc(C(C)(C)C)c(O)c(C(C)(C)C)c1 | 51.4 µM (inactive) | 36.1 µM (inactive) | 48.4 µM (inactive) | > 100 µM (inactive) | 45 µM (inactive) | 40.4 µM (inactive) | 37.2 µM (inactive) | 36.4 µM (inactive) | 42.2 µM (inactive) | 76.6 µM (inactive) | > 100 µM (inactive) | 15.5 µM (inactive) | 17.8 µM (inactive) | 70.3 µM (inactive) | 27.4 µM (inactive) | 37 µM (inactive) | 62.2 µM (inactive) | 34.5 µM (inactive) | 34.4 µM (inactive) | 22.9 µM (inactive)
CCCCCC(O)[C@H]1C(=O)C[C@@H](O[Si](C)(C)C(C)(C)C)[C@@H]1/C=C/CCOCc1ccccc1 (stereo not given in full) | 11.4 µM (inactive) | 16 µM (inactive) | 17.4 µM (inactive) | 17.3 µM (inactive) | 12.8 µM (inactive) | 9.02 µM (inactive) | 7.31 µM (inactive) | 9.51 µM (inactive) | 15.3 µM (inactive) | 13.7 µM (inactive) | 12.6 µM (inactive) | 13.8 µM (inactive) | 16.6 µM (inactive) | 16.8 µM (inactive) | 17.8 µM (inactive) | 13.1 µM (inactive) | 13.6 µM (inactive) | 15.1 µM (inactive) | 13.3 µM (inactive) | 11.8 µM (inactive)
CC(C)=CCC[C@@H](C)[C@H]1CC[C@@]2(C)[C@@H]3CC[C@H]4C(C)(C)[C@@H](O)CC[C@@]45C[C@@]35CC[C@]12C [CYCLOARTENOL] | 43.8 µM (inactive) | > 60 µM (inactive) | 37.2 µM (inactive) | 24.9 µM (inactive) | 16.1 µM (inactive) | 31.8 µM (inactive) | > 41.9 µM (inactive) | > 72.9 µM (inactive) | > 100 µM (inactive) | > 100 µM (inactive) | > 100 µM (inactive) | 16.9 µM (inactive) | > 44.4 µM (inactive) | 53.5 µM (inactive) | > 55.7 µM (inactive) | 58.2 µM (inactive) | 51.4 µM (inactive) | > 100 µM (inactive) | > 100 µM (inactive) | 44.4 µM (inactive)
C[C@H](CC[C@@H](O)C(C)(C)O)[C@H]1CC[C@@]2(C)[C@@H]3CC=C4[C@@H](CC[C@H](OC5OC(CO)C(O)C(O)C5O)C4(C)C)[C@]3(C)C(=O)C[C@]12C (stereo not given in full) | 26.6 µM (inactive) | 48.9 µM (inactive) | 80.4 µM (inactive) | 36.8 µM (inactive) | 19.8 µM (inactive) | 51.5 µM (inactive) | 42.6 µM (inactive) | 32.7 µM (inactive) | 49.4 µM (inactive) | 65 µM (inactive) | 45.3 µM (inactive) | > 100 µM (inactive) | 39.5 µM (inactive) | 31 µM (inactive) | 34.3 µM (inactive) | 4.03 µM (inactive) | 97.9 µM (inactive) | 60.8 µM (inactive) | 33.7 µM (inactive) | 58.1 µM (inactive)
COc1ccc2nc3cccc([N+](=O)[O-])c3c(NCCC(=O)O)c2c1 | > 10 µM (inactive) | 7.59 µM (inactive) | > 10 µM (inactive) | > 10 µM (inactive) | > 10 µM (inactive) | 5.78 µM (inactive) | > 10 µM (inactive) | > 10 µM (inactive) | 4.51 µM (inactive) | > 10 µM (inactive) | > 10 µM (inactive) | > 10 µM (inactive) | > 10 µM (inactive) | > 10 µM (inactive) | > 10 µM (inactive) | > 10 µM (inactive) | 7.5 µM (inactive) | > 10 µM (inactive) | > 10 µM (inactive) | > 10 µM (inactive)
Fc1cc2nc3n(c2cc1F)C(c1c(Cl)cccc1Cl)SC3 (stereo not given) | 15 µM (inactive) | 18.7 µM (inactive) | 18.4 µM (inactive) | 16 µM (inactive) | 18.5 µM (inactive) | 16.5 µM (inactive) | 15.1 µM (inactive) | 15.7 µM (inactive) | 17.6 µM (inactive) | 13 µM (inactive) | 15.9 µM (inactive) | 16 µM (inactive) | 7.82 µM (inactive) | 16.5 µM (inactive) | 13.7 µM (inactive) | 18 µM (inactive) | 14.3 µM (inactive) | 18.2 µM (inactive) | 13.6 µM (inactive) | 12.6 µM (inactive)
CC(=O)NC1C(OC(C)C(=O)NC(C)C(=O)NC(CCC(=O)NCCCCCNc2ccc([N+](=O)[O-])c3[nH]c4ccccc4c(=O)c23)C(N)=O)C(O)C(CO)OC1(C)OCc1ccccc1 (stereo not given) | 38.7 µM (inactive) | > 100 µM (inactive) | > 100 µM (inactive) | 89.7 µM (inactive) | 64.1 µM (inactive) | 73.3 µM (inactive) | > 100 µM (inactive) | > 100 µM (inactive) | > 100 µM (inactive) | > 100 µM (inactive) | > 100 µM (inactive) | 71.6 µM (inactive) | > 100 µM (inactive) | > 100 µM (inactive) | > 100 µM (inactive) | 67.9 µM (inactive) | > 100 µM (inactive) | 11.9 µM (inactive) | > 100 µM (inactive) | > 100 µM (inactive)
CCCCCCCCCCCCCCCC(=O)Nc1ccn(C2OC(CO)C(O)C2O)c(=O)n1 (stereo not given) | 4.01 µM (inactive) | 37.9 µM (inactive) | > 100 µM (inactive) | 0.887 µM (active) | 35.6 µM (inactive) | 0.94 µM (active) | 27.6 µM (inactive) | 30.3 µM (inactive) | 4.22 µM (inactive) | 34.2 µM (inactive) | > 100 µM (inactive) | 6.55 µM (inactive) | 29.9 µM (inactive) | 16.7 µM (inactive) | 30.5 µM (inactive) | > 90.4 µM (inactive) | 30.1 µM (inactive) | > 100 µM (inactive) | 78.3 µM (inactive) | 24.2 µM (inactive)
O=C1c2cccc3cc4ccccc4c(c23)C(=O)N1CCCNCCNCCCN1C(=O)c2cccc3cc4ccccc4c(c23)C1=O | 0.02 µM (active) | 0.0316 µM (active) | 1.15 µM (inactive) | 0.0203 µM (active) | 0.0139 µM (active) | 0.0191 µM (active) | 0.0421 µM (active) | 0.0546 µM (active) | 0.211 µM (active) | 0.353 µM (active) | 0.129 µM (active) | 0.0107 µM (active) | 0.128 µM (active) | 0.31 µM (active) | 0.0263 µM (active) | < 0.01 µM (active) | 0.421 µM (active) | 1 µM (active) | 1.02 µM (active) | 0.0575 µM (active)
CSc1c(CC(=O)Nc2ccc(Cl)cc2)n(Cc2ccccc2)c2ccccc12 | 11.3 µM (inactive) | 44.6 µM (inactive) | 12.1 µM (inactive) | 21.2 µM (inactive) | 26.5 µM (inactive) | 18.6 µM (inactive) | 49.3 µM (inactive) | 76.4 µM (inactive) | 57.7 µM (inactive) | > 100 µM (inactive) | 11.7 µM (inactive) | 12.3 µM (inactive) | 29.9 µM (inactive) | 41.4 µM (inactive) | 13 µM (inactive) | > 100 µM (inactive) | 12.1 µM (inactive) | 16 µM (inactive) | 24.8 µM (inactive) | 18.1 µM (inactive)
COc1cc(CNCc2cc(OC)c(OC)c(OC)c2)cc(OC)c1OC | > 10 µM (inactive) | > 10 µM (inactive) | > 10 µM (inactive) | > 10 µM (inactive) | > 10 µM (inactive) | > 10 µM (inactive) | > 10 µM (inactive) | > 10 µM (inactive) | > 10 µM (inactive) | > 10 µM (inactive) | > 10 µM (inactive) | > 10 µM (inactive) | > 10 µM (inactive) | > 10 µM (inactive) | > 8.38 µM (inactive) | > 10 µM (inactive) | > 10 µM (inactive) | > 10 µM (inactive) | > 10 µM (inactive) | > 10 µM (inactive)
